The assay addresses T1, murine MAdCAM-1 (MAdCAM-1/mCk fusion protein); α4β7-bearing HUT 78 cells (Homo sapiens, UniProt P13612+P26010).
T1 construct: host or cells: HUT 78 cells (endogenous α4β7); The MAdCAM-1/mCk partner was made in house in baculovirus-infected Sf9 insect cells, used as neat supernatant and captured by rat anti-mCk antibody
The assay can be described thus: Adhesion of HUT 78 cells to MAdCAM-1/mCk fusion protein bound via capture antibody. As to conditions: for pIC50 / IC50: HUT 78 cell adhesion to MAdCAM-1/mCk, average of two determinations; for pIC50: read-out: IC50; for IC50: IC50 (μM); for % Adhesion Inhibition 500 μM: 500 μM compound, HUT 78 cells, Mn2+ activated. It is filed as cell-based. The method, then: The compounds of the present invention were evaluated for their biological properties.
A soluble fusion protein comprising murine MAdCAM-1 was produced in a baculovirus expression system and used in the adhesion assay. A fusion gene in which sequences encoding the signal peptide and extracellular domain of murine MAdCAM-1 were fused to sequences encoding a constant region of the murine kappa light chain (mCk) was constructed, and cloned into a baculovirus shuttle vector. Fusion protein produced from the resulting construct contained the integrin binding sequences of murine MAdCAM-1 at the amino-terminus, and the mCk sequence at the carboxy-terminus. Recombinant baculovirus encoding the fusion protein was harvested from infected Sf9 insect cells.
Human T-cell lymphoma cells (HUT 78 cells) activated with Mn^+2 were used for the adhesion assay in a 96-well format. HUT 78 cells were labelled by preincubation with ECECF-AM stain (Molecular Probes). Assays were conducted in a final volume of 200 μl. The adhesion of HUT 78 cells to MAdCAM-1/mCk fusion protein bound to wells via rat anti-mCk capture antibody was assessed in the presence or absence of each compound. […] Percent inhibition and IC50 values were determined.
HUT 78 cells (a human T cell lymphoma line; American Type Culture Collection, Accession No. ATCC TIB 161) were maintained in culture for up to one month in RPMI 1640 supplemented with 10% FCS, 20 mM HEPES, and Pen-Strep (1:100). Just prior to use in adhesion assays, cells were labeled with BCECF-AM as follows: 1×10^7 cells were pelleted at 1000 rpm for 10 minutes and resuspended in 25 mL cold PBS (Phosphate Buffered Saline). The cells were pelleted again, resuspended in cold PBS, and pelleted again. The cell pellet was resuspended in 25 ml PBS and labeled with 50 μl BCECF-AM (1 μg/μL in DMSO) for 30 minutes at 37° C. (BCECF-AM; 2′,7′-bis-(2-carboxyethyl)-5-(and-6)-carboxyflourescein, acetoxymethyl ester). The labeled cells were pelleted at 700 rpm for 10 minutes, resuspended in 25 ml cold Assay Buffer and pelleted.
The assay was performed in a 96-well format. Plates were coated overnight at 4° C. with 53 μl/well of a 5 μg/mL solution of rat anti-mCk in carbonate buffer. The plates were blocked for 1 hour at 37° C. with 100 μL/well of 1% BSA in PBS. The BSA/PBS solution was removed, and 50 μL of MAdCAM-mCk supernatant was added neat to each well. The assay was conducted under conditions in which capture antibody was the limiting reagent.
Cell adhesion was measured in the presence or absence of compounds. The compounds were resuspended in 100% DMSO, subsequently diluted 1:10 in water, and finally diluted again 1:10 in the assay: 50 μL of 2X Assay Bufler, 30 μL water, 20 μL of compound were added to each well. […] Cell adhesion occurred in 30 minutes at ambient temperature, after which plates were washed with 50 mM Tris/2 mM MnCl2, pH 7.2 using an EL 404 Microplate Autowasher (BIO-TEK Instruments) using the following wash parameters: wash volume=500 μL; two wash cycles; wash depth=80; aspirating after each wash.
Additional determinations were conducted as needed, so that each IC50 was determined over a range which encompassed the IC50. Over this range, Four different concentrations were tested in duplicate.
For each compound, a ratio was determined as follows: An average of the readings from duplicate wells was divided by an average of eight control wells (adhesion in the absence of any compound). […] In addition, the concentration (μM) of compound used was plotted against the resulting ratios.
The IC50 was then determined using Kaleidograph software (Abelbeck Software). The complete procedure was repeated again using duplicate wells for each point.

Setting [1] is: HuT78, read-out: % Adhesion Inhibition.

Consider 19 molecules from patent US20020103111A1, “Inhibitors of MAdCAM-1-mediated interactions and methods of use therefor” (Millennium Pharmaceuticals, Inc., priority 1996, published 2002).

pIC50: −log10 of the molar value. Where two headings read alike, the source gives them in different places. Square brackets hold non-standard residues; d marks the D form. Ends that are not written are not given here. Peptide text beside a SMILES is read from it. * marks the point of attachment. Butanoyl(4-pyren-1-yl) = O=C(CCCc1ccc2ccc3cccc4ccc1c2c34)*; Cyclopentanecarbonyl = O=C(C1CCCC1)*; NMeL = CN[C@@H](CC(C)C)C(=O)O

As to `CC(C)C[C@H](NC(=O)[C@H](CO)NC(=O)[C@@H](NC(=O)[C@H](CC(=O)O)NC(=O)[C@H](CC(C)C)NC(=O)c1ccc2cc3ccccc3cc2c1)[C@@H](C)O)C(N)=O` [Example 38, 2-Anc-Leu-Asp-Thr-Ser-Leu], the negative logarithm of the IC50 (pIC50) (as a rule, the IC50 on a negative log10 scale, so that one unit is a factor of ten) is 5.27. On to `CC(C)C[C@H](NC(=O)[C@H](CO)NC(=O)[C@@H](NC(=O)[C@H](C)NC(=O)[C@H](CC(C)C)NC(=O)CCCc1ccc2ccc3cccc4ccc1c2c34)[C@@H](C)O)C(N)=O` [Example 39, Pba-Leu-Ala-Thr-Ser-Leu] ({Butanoyl(4-pyren-1-yl)}-LATSL-NH2), for which the IC50 (usually the concentration needed to halve the response being measured) is 28 µM. Further, the inhibition (as a rule, the change of the read-out against control, counted positive when it falls) at 250 µM under setting [1] was determined as 100%. Regarding `CC(C)C[C@H](NC(=O)[C@H](CO)NC(=O)[C@@H](NC(=O)[C@H](Cc1ccc(O)cc1)NC(=O)[C@H](CC(C)C)NC(=O)CCCc1ccc2ccc3cccc4ccc1c2c34)[C@@H](C)O)C(N)=O` [Example 42, Pba-Leu-Tyr-Thr-Ser-Leu] ({Butanoyl(4-pyren-1-yl)}-LYTSL-NH2), the IC50 came to 30 µM. Also, the inhibition at 500 µM (HuT78, read-out: % Adhesion Inhibition 500 μM) worked out at 100%. Turning to `CC(=O)N(C)[C@@H](CC(C)C)C(=O)N[C@@H](CC(=O)O)C(=O)N[C@H](C(=O)N[C@@H](CO)C(=O)N[C@@H](CC(C)C)C(N)=O)[C@@H](C)O` [Example 49, Ac-MeLeu-Asp-Thr-Ser-Leu], the pIC50 is 3.82.

As to `CC(C)C[C@H](NC(=O)[C@H](CO)NC(=O)[C@@H](NC(=O)[C@H](CC(=O)O)NC(=O)C1CCCC1)[C@@H](C)O)C(N)=O` [Example 50, Cpc-Asp-Thr-Ser-Leu] (Cyclopentanecarbonyl-DTSL-NH2), the pIC50 is 5.05.

The molecule `CC(C)C[C@H](NC(=O)[C@H](CO)NC(=O)[C@@H](NC(=O)[C@H](CC(=O)O)NC(=O)CCCc1ccc2ccc3cccc4ccc1c2c34)[C@@H](C)O)C(N)=O` [Example 51, Pba-Asp-Thr-Ser-Leu] ({Butanoyl(4-pyren-1-yl)}-DTSL-NH2) registered an IC50 of 13.3 µM. For the same molecule, under setting [1], the inhibition at 100 µM is 100%. Consider `C[C@@H](O)[C@H](NC(=O)[C@H](CC(=O)O)NC(=O)c1ccc2ccc3cccc4ccc1c2c34)C(N)=O` [Example 52, Pca-Asp-Thr], for which the pIC50 is 4.96.

With `C[C@@H](O)[C@H](NC(=O)[C@H](CC(=O)O)NC(=O)CCCc1ccc2ccc3cccc4ccc1c2c34)C(N)=O` [Example 53, Pba-Asp-Thr], the midpoint of inhibition, the IC50, lay at 13.5 µM. The inhibition at 100 µM under setting [1] is 100%. As for “Ac-Arg-Gly-Leu-Asp-Thr-Ser-Leu-Gly (Ac-RGLDTSLG; not fully specified (C-terminus); printed as Ac-Arg-Gly-Leu-Asp-Thr-Ser-Leu-Gly) [Example 59]”, the “% Adhesion Inhibition 500 μM” value is on record as 75%.

“Ac-Arg-Val-His-Trp-Arg-Gly-Leu-Asp-Thr-Ser-Leu-Gly-Ser-Val-Gln (Ac-RVHWRGLDTSLGSVQ; not fully specified (C-terminus); printed as Ac-Arg-Val-His-Trp-Arg-Gly-Leu-Asp-Thr-Ser-Leu-Gly-Ser-Val-Gln) [Example 62]”: the “% Adhesion Inhibition 500 μM” value is reported as 88%. On to “Ac-His-Trp-Arg-Gly-Leu-Asp-Thr-Ser-Leu-Gly-Ser-Val (Ac-HWRGLDTSLGSV; not fully specified (C-terminus); printed as Ac-His-Trp-Arg-Gly-Leu-Asp-Thr-Ser-Leu-Gly-Ser-Val) [Example 61]”, for which the “% Adhesion Inhibition 500 μM” value worked out at 71%. In the case of “Ac-Leu-Asp-Thr-Ser-Leu (Ac-LDTSL; not fully specified (C-terminus); printed as Ac-Leu-Asp-Thr-Ser-Leu) [Example 58]”, the “% Adhesion Inhibition 500 μM” value turned out to be 71%. With Ac-Lle-Asp-Thr-Ser-Leu [Example 46], the “% Adhesion Inhibition 500 μM” value was determined as 17%.

As for “Ac-Trp-Arg-Gly-Leu-Asp-Thr-Ser-Leu-Gly-Ser (Ac-WRGLDTSLGS; not fully specified (C-terminus); printed as Ac-Trp-Arg-Gly-Leu-Asp-Thr-Ser-Leu-Gly-Ser) [Example 60]”, the “% Adhesion Inhibition 500 μM” value is on record as 71%. “MeLeu-Leu-Asp-Thr-Ser-Leu ([NMeL]LDTSL) [Example 27]”: the “% Adhesion Inhibition 500 μM” value was determined as 54% and the pIC50 was 3.59. Turning to “NH2-Arg-Val-His-Trp-Arg-Gly-Leu-Asp-Thr-Ser-Leu-Gly-Ser-Val-Gln (H-RVHWRGLDTSLGSVQ; not fully specified (C-terminus); printed as NH2-Arg-Val-His-Trp-Arg-Gly-Leu-Asp-Thr-Ser-Leu-Gly-Ser-Val-Gln) [Example 57]”, the “% Adhesion Inhibition 500 μM” value is 90%.

As for “NH2-His-Trp-Arg-Gly-Leu-Asp-Thr-Ser-Leu-Gly-Ser-Val (H-HWRGLDTSLGSV; not fully specified (C-terminus); printed as NH2-His-Trp-Arg-Gly-Leu-Asp-Thr-Ser-Leu-Gly-Ser-Val) [Example 56]”, the “% Adhesion Inhibition 500 μM” value was 80%. With “NH2-Leu-Asp-Thr-Ser-Leu (H-LDTSL; not fully specified (C-terminus); printed as NH2-Leu-Asp-Thr-Ser-Leu) [Example 54]”, the “% Adhesion Inhibition 500 μM” value is 22%. For “NH2-Trp-Arg-Gly-Leu-Asp-Thr-Ser-Leu-Gly-Ser (H-WRGLDTSLGS; not fully specified (C-terminus); printed as NH2-Trp-Arg-Gly-Leu-Asp-Thr-Ser-Leu-Gly-Ser) [Example 55]”, the “% Adhesion Inhibition 500 μM” value is on record as 76%.
